Patent US10564093B2, “Single injection competition assays” (Molecular Devices, LLC, priority 2015, dated 2020)

Tested on: Carbonic anhydrase II enzyme
Test: SPR single injection competitive binding analysis of CBS in the presence of Furosemide
Description: The binding interaction analysis was carried out using a SPR cell having a sensing region wherein the bound ligand is Carbonic anhydrase II enzyme immobilized on the surface of the biosensor via amine coupling to ˜6500 RU. […] According to the method described above, the dispersion gradient was prepared by initially aspirating, pulling, the Furosemide into the sample holding line followed by pulling the buffer into the sample holding line. […] The dispersion gradient of CBS was prepared using 200 μl of a 2 μM of CBS and 100 μl of buffer. The dispersion gradient of CBS in buffer was prepared by initially aspirating the CBS into the sample holding line followed by pulling the buffer into the sample holding line. The resulting dispersion gradient was immediately injected at a flow rate of 50 μl/min through the SPR sensing region containing the bound ligand.
FIGS. 16-18 will be referenced with regard to the method of determining binding competitive analysis. FIG. 16 reflects the relative concentrations of analyte when performing a binding competition analysis.
In contrast, the relative concentration of CBS will increase as a dispersion gradient during the competitive analysis.
The binding response curves of FIG. 17 were prepared by injecting two samples. […]

## NS(=O)(=O)c1ccc(C(=O)O)cc1 [CBS, 4-carboxy-benzenesulfonamide]
Immobilized Carbonic anhydrase II, constant Furosemide, CBS dispersion gradient, Furosemide control curve subtracted
  binding of CBS to the ligand in the presence of Furosemide (subtracted binding interaction curves, FIG. 18): no binding
No control subtraction, curve remains substantially steady state
  qualitative analysis of binding interaction curve of CBS/Furosemide dispersion gradient (FIG. 17, lines 1 and 3): does not compete and does not contribute to the binding interaction
